# Measured values taken from ChEMBL document CHEMBL4354827, “Discovery of Novel, Potent, Brain-Permeable, and Orally Efficacious Positive Allosteric Modulator of α7 Nicotinic Acetylcholine Receptor [4-(5-(4-Chlorophenyl)-4-methyl-2-propionylthiophen-3-yl)benzenesulfonamide]: Structure-Activity Relationship and Preclinical Characterization” (J Med Chem, 2020).
# Tests used:
# [1] = Oral bioavailability in Beagle dog at 10 mg/kg after 0.25 to 144 hrs by LC-MS/MS analysis; type: ADME, organism-based, Canis lupus familiaris; details: in vivo
# [2] = Clearance in Wistar rat at 1 mg/kg, iv after 0.083 to 144 hrs by LC-MS/MS analysis; type: ADME, organism-based; details: Wistar, in vivo
# [3] = AUC (0 to 144 hrs) in Wistar rat at 10 mg/kg, po after 0.25 to 144 hrs by LC-MS/MS analysis; type: ADME, organism-based; set-up: dose 10 mg/kg, time < 144 hr, route oral; details: in vivo
# [4] = Tmax in Beagle dog at 1 mg/kg, iv after 0.083 to 144 hrs by LC-MS/MS analysis; type: ADME, organism-based, Canis lupus familiaris; details: in vivo
# [5] = AUC (0 to 144 hrs) in Wistar rat at 1 mg/kg, iv after 0.083 to 144 hrs by LC-MS/MS analysis; type: ADME, organism-based; set-up: time < 144 hr, dose 1 mg/kg, route intravenous; details: in vivo
# [6] = Cmax in Wistar rat at 1 mg/kg, iv after 0.083 to 144 hrs by LC-MS/MS analysis; type: ADME, organism-based; set-up: dose 1 mg/kg, route intravenous; details: in vivo
# [7] = Protein binding in human plasma at 5 uM incubated for 16 hrs under shaking condition by LC/MS/MS based rapid equilibrium dialysis method; type: ADME, cell-free; details: read-out: PPB (converted)
# [8] = Drug metabolism in monkey liver microsomes assessed as metabolic rate at 1 uM preincubated for 5 mins followed by NADPH addition after 30 mins by LC-MS/MS analysis; type: ADME, Macaca mulatta, Microsome; details: rhesus monkey, 0.5 h
# [9] = Metabolic stability in dog liver microsomes assessed as compound remaining at 1 uM preincubated for 5 mins followed by NADPH addition and measured after 30 mins by LC-MS/MS analysis; type: ADME, Canis lupus familiaris, Microsome; details: read-out: Stability
# [10] = Metabolic stability in human pooled liver microsomes assessed as compound remaining at 1 uM preincubated for 5 mins followed by NADPH addition and measured after 30 mins by LC-MS/MS analysis; type: ADME, Microsome; details: read-out: Stability
# [11] = Drug metabolism in mouse liver microsomes assessed as metabolic rate at 1 uM preincubated for 5 mins followed by NADPH addition after 30 mins by LC-MS/MS analysis; type: ADME, Microsome; details: 0.5 h
# [12] = Drug metabolism in rat liver microsomes assessed as metabolic rate at 1 uM preincubated for 5 mins followed by NADPH addition after 30 mins by LC-MS/MS analysis; type: ADME, Microsome; details: 0.5 h
# [13] = AUClast in Beagle dog at 1 mg/kg, iv after 0.083 to 144 hrs by LC-MS/MS analysis; type: ADME, organism-based, Canis lupus familiaris; set-up: dose 1 mg/kg, time 0.083-144 hr, route intravenous; details: in vivo
# [14] = Tmax in Beagle dog at 10 mg/kg, po after 0.25 to 144 hrs by LC-MS/MS analysis; type: ADME, organism-based, Canis lupus familiaris; details: in vivo
# [15] = Tmax in Wistar rat at 10 mg/kg, po after 0.25 to 144 hrs by LC-MS/MS analysis; type: ADME, organism-based; details: in vivo
# [16] = Volume of distribution at steady state in Wistar rat at 1 mg/kg, iv after 0.083 to 144 hrs by LC-MS/MS analysis; type: ADME, organism-based; details: in vivo, read-out: Vdss
# [17] = Cmax in Wistar rat at 10 mg/kg, po after 0.25 to 144 hrs by LC-MS/MS analysis; type: ADME, organism-based; set-up: dose 10 mg/kg, route oral; details: in vivo
# [18] = Half life in Beagle dog at 1 mg/kg, iv after 0.083 to 144 hrs by LC-MS/MS analysis; type: ADME, organism-based, Canis lupus familiaris; details: in vivo
# [19] = Drug metabolism in dog liver microsomes assessed as metabolic rate at 1 uM preincubated for 5 mins followed by NADPH addition after 30 mins by LC-MS/MS analysis; type: ADME, Canis lupus familiaris, Microsome; details: 0.5 h
# [20] = Metabolic stability in rat liver microsomes assessed as compound remaining at 1 uM preincubated for 5 mins followed by NADPH addition and measured after 30 mins by LC-MS/MS analysis; type: ADME, Microsome; details: read-out: Stability
# [21] = Drug metabolism in human pooled liver microsomes assessed as metabolic rate at 1 uM preincubated for 5 mins followed by NADPH addition after 30 mins by LC-MS/MS analysis; type: ADME, Microsome; details: 0.5 h
# [22] = Protein binding in rat plasma at 5 uM incubated for 16 hrs under shaking condition by LC/MS/MS based rapid equilibrium dialysis method; type: ADME, cell-free; details: read-out: PPB (converted)
# [23] = Volume of distribution at steady state in Beagle dog at 1 mg/kg, iv after 0.083 to 144 hrs by LC-MS/MS analysis; type: ADME, organism-based, Canis lupus familiaris; details: in vivo, read-out: Vdss
# [24] = Clearance in Beagle dog at 1 mg/kg, iv after 0.083 to 144 hrs by LC-MS/MS analysis; type: ADME, organism-based, Canis lupus familiaris; details: Beagle, in vivo
# [25] = Tmax in Wistar rat at 1 mg/kg, iv after 0.083 to 144 hrs by LC-MS/MS analysis; type: ADME, organism-based; details: in vivo
# [26] = Metabolic stability in mouse liver microsomes assessed as compound remaining at 1 uM preincubated for 5 mins followed by NADPH addition and measured after 30 mins by LC-MS/MS analysis; type: ADME, Microsome; details: read-out: Stability
# [27] = Half life in Wistar rat at 1 mg/kg, iv after 0.083 to 144 hrs by LC-MS/MS analysis; type: ADME, organism-based; details: in vivo
# [28] = biological target: Neuronal acetylcholine receptor subunit alpha-7 (Homo sapiens, UniProt P36544); assay: Positive allosteric modulatory activity against alpha7 nAChR in human IMR-32 cells assessed as potentiation of PNU-282987-induced Ca2+ […] at 1 uM by FLIPR assay relative to control; type: cell-based
# Sequence of Neuronal acetylcholine receptor subunit alpha-7 (P36544 whole entry): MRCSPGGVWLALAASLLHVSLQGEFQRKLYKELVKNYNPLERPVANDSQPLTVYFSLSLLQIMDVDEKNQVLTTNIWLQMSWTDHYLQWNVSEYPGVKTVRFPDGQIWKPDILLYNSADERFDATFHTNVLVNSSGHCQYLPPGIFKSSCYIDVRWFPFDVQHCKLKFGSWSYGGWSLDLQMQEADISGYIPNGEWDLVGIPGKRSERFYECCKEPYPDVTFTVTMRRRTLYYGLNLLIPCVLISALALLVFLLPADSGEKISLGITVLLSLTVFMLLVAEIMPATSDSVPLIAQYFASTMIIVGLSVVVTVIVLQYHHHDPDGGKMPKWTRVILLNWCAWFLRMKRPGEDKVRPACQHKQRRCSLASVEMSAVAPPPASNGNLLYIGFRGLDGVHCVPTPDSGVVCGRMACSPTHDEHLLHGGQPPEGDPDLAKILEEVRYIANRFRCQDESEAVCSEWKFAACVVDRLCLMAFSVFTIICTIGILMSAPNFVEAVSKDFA
# [29] = AUClast in Beagle dog at 10 mg/kg, po after 0.25 to 144 hrs by LC-MS/MS analysis; type: ADME, organism-based, Canis lupus familiaris; set-up: time upper 144 hr, dose 10 mg/kg, time lower 0.25 hr, route oral; details: in vivo
# [30] = Cmax in Beagle dog at 10 mg/kg, po after 0.25 to 144 hrs by LC-MS/MS analysis; type: ADME, organism-based, Canis lupus familiaris; set-up: dose 10 mg/kg, route oral; details: in vivo
# [31] = Oral bioavailability in Wistar rat at 10 mg/kg after 0.25 to 144 hrs by LC-MS/MS analysis; type: ADME, organism-based; details: in vivo
# [32] = Cmax in Beagle dog at 1 mg/kg, iv after 0.083 to 144 hrs by LC-MS/MS analysis; type: ADME, organism-based, Canis lupus familiaris; set-up: dose 1 mg/kg, route intravenous; details: in vivo
# [33] = Metabolic stability in monkey liver microsomes assessed as compound remaining at 1 uM preincubated for 5 mins followed by NADPH addition and measured after 30 mins by LC-MS/MS analysis; type: ADME, Macaca mulatta, Microsome; details: rhesus monkey, read-out: Stability
smiles,measurement,setting,value
CCC(=O)c1sc(-c2ccc(OC)cc2)c(C)c1-c1ccc(S(N)(=O)=O)cc1,bioavailability,[1],4%
same,clearance,[2],1.86 L/h/kg
same,AUC(0-t) at 144 h,[3],8200 nM·h
same,Tmax,[4],0.25 h
same,AUC(0-t) at 144 h,[5],1300 nM·h
same,Cmax,[6],0.9 µM
same,"fraction unbound at 16 h, 5 µM",[7],0.002
same,Drug metabolism,[8],0.05 nmol/min/mg
same,"remaining at 0.5 h, 1 µM",[9],84%
same,"remaining at 0.5 h, 1 µM",[10],81%
same,Drug metabolism,[11],0.03 nmol/min/mg
same,Drug metabolism,[12],0.01 nmol/min/mg
same,AUC(0-t),[13],3200 nM·h
same,Tmax,[14],1.17 h
same,Tmax,[15],2 h
same,Vd,[16],3 L/kg
same,Cmax,[17],3 µM
same,half-life,[18],2 h
same,Drug metabolism,[19],0.02 nmol/min/mg
same,"remaining at 0.5 h, 1 µM",[20],97%
same,Drug metabolism,[21],0.03 nmol/min/mg
same,"fraction unbound at 16 h, 5 µM",[22],0.003
same,Vd,[23],2 L/kg
same,clearance,[24],0.72 L/h/kg
same,Tmax,[25],4.8 min
same,"remaining at 0.5 h, 1 µM",[26],78%
same,half-life,[27],1.4 h
same,fold change (FC),[28],22
same,AUC(0-t),[29],1300 nM·h
same,Cmax,[30],0.4 µM
same,bioavailability,[31],63%
same,Cmax,[32],2.3 µM
same,"remaining at 0.5 h, 1 µM",[33],67%
